Data: US10370354B2, “Metalloenzyme inhibitor compounds” (NQP 1598, LTD., priority 2011, dated 2019)
≈ marks a conversion by molar mass, not a printed value.

Legend:
[1] = system: C. albicans; test: Minimum Inhibitory Concentration (MIC), C. albicans, CLSI M27-A2; format: cell-based; settings: Candida albicans MIC50; about 50% growth reduction; approximately 48 h at 35±1° C.
Description: Compounds were assessed for their ability to inhibit the growth of common strains of fungus, C. albicans using a standardized procedure (CLSI M27-A2).
Stock solutions of the test compounds and standards were prepared in DMSO at 1600 μg/mL (C. albicans). Eleven, serial, one-half dilutions of compounds were prepared in 96-well plates in RPMI+MOPS. The assay concentration ranges were 1-0.001 μg/mL (C. albicans). Cell suspensions of C. albicans were prepared and added to each well at concentrations of approximately 3.7×10^3 colony-forming-units per milliliter (cfu/mL). All testing was in duplicate. The inoculated plates were incubated for approximately 48 h at 35±1° C. At the completion of incubation the wells of each plate were evaluated visually for the presence of fungal growth.
For voriconazole the M1C was the concentration which reduced C. albicans growth by 50% (per CLST, M27-A2). For QC purposes C. krusei isolate ATCC 6258 (4.0×10^3 cfu/mL) was included in the VOR assay.

[2] = system: Septoria tritici; test: standard Septoria tritici MIC assay (ATCC 26517, CLSI protocol); format: cell-based; settings: Zymoseptoria tritici, ATCC26517, range stated for the three compounds together
[3] = system: Septoria; test: protection from fungal growth in planta, Septoria; format: in vivo; settings: applied at 50 ppm; Septoria pathogen
[4] = system: Puccinia; test: protection from fungal growth in planta, Puccinia; format: in vivo; settings: applied at 50 ppm; Puccinia pathogen
[5] = system: A. fumigatus; test: A. fumigatus MIC, CLSI M38-A2; settings: Aspergillus fumigatus, read-out: Aspergillus MIC
[6] = system: A. fumigatus; test: standard 4-day mouse model of A. fumigatus, kidney fungal burden; format: in vivo; settings: oral administration at 20 mg/kg each of 4 days
Description: For example, oral administration of Compound (−)-9 at 20 mg/kg each of 4 days reduced mouse kidney fungal burden 84% compared to control.

Row | MIC [1] [µg/mL] | MIC [2] [µg/mL] | MIC [5] [µg/mL] | SMILES | further results
1 | – | 0.25 to 1 (≈ 0.53 to 2.12 µM) | – | OC(Cn1cnnn1)(c1ccc(F)cc1F)C(F)(F)c1ccc(C#Cc2ccc(F)cc2)cn1 (racemic) [Example 3, 2-(2,4-Difluorophenyl)-1,1-difluoro-1-(5-((4-fluorophenyl)ethynyl)pyridin-2-yl)-3-(1H-tetrazol-1-yl)propan-2-ol] | –
2 | 0.016 (≈ 0.0307 µM) | – | 8 (≈ 15.3 µM) | OC(Cn1cnnn1)(c1ccc(F)cc1F)C(F)(F)c1ccc(C#Cc2ccc(C(F)(F)F)cc2)cn1 (racemic) [Example 5, 2-(2,4-Difluorophenyl)-1,1-difluoro-3-(1H-tetrazol-1-yl)-1-(5-((4-(trifluoromethyl)phenyl)ethynyl)pyridin-2-yl)propan-2-ol] | –
3 | ≤ 0.001 | – | 0.5 (≈ 0.907 µM) | OC(c1ccc(C#Cc2ccc(C(F)(F)C(O)(Cn3cnnn3)c3ccc(F)cc3F)nc2)cc1)C(F)(F)F (racemic) [Example 9, 2-(2,4-difluorophenyl)-1,1-difluoro-3-(1H-tetrazol-1-yl)-1-(5-((4-(2,2,2-trifluoro-1-hydroxyethyl)phenyl)ethynyl)pyridin-2-yl)propan-2-ol] | –
4 | – | 0.25 to 1 (≈ 0.512 to 2.05 µM) | – | OC(Cn1cnnn1)(c1ccc(F)cc1F)C(F)(F)c1ccc(C#Cc2cccc(Cl)c2)cn1 (racemic) [Example 21, 1-(5-((3-chlorophenyl)ethynyl)pyridin-2-yl)-2-(2,4-difluorophenyl)-1,1-difluoro-3-(1H-tetrazol-1-yl)propan-2-ol] | –
5 | 0.25 (≈ 0.388 µM) | – | 2 (≈ 3.11 µM) | OC(Cn1cnnn1)(c1ccc(F)cc1F)C(F)(F)c1ccc(C#Cc2ccc(OCc3ccc(OC(F)(F)F)cc3)cc2)cn1 (racemic) [Example 101, 2-(2,4-difluorophenyl)-1,1-difluoro-3-(1H-tetrazol-1-yl)-1-(5-((4-(4-(trifluoromethoxy)benzyloxy)phenyl)ethynyl)pyridin-2-yl)propan-2-ol] | –
6 | 0.062 (≈ 0.101 µM) | – | 4 (≈ 6.54 µM) | OC(Cn1cnnn1)(c1ccc(F)cc1F)C(F)(F)c1ccc(C#Cc2ccc(OCc3ccc(Cl)cc3F)cc2)cn1 (racemic) [Example 108, 1-(5-((4-(4-chloro-2-fluorobenzyloxy)phenyl)ethynyl)pyridin-2-yl)-2-(2,4-difluorophenyl)-1,1-difluoro-3-(1H-tetrazol-1-yl)propan-2-ol] | –
7 | – | – | – | OC(c1ccc(C#Cc2ccc(C(F)(F)C(O)(Cn3cnnn3)c3ccc(F)cc3F)nc2)cc1)C(F)(F)F (stereo not drawn) [Compound (−)-9, 2-(2,4-difluorophenyl)-1,1-difluoro-3-(1H-tetrazol-1-yl)-1-(5-((4-(2,2,2-trifluoro-1-hydroxyethyl)phenyl)ethynyl)pyridin-2-yl)propan-2-ol] | reduced mouse kidney fungal burden compared to control [6]: 84%
8 | 0.016 (≈ 0.0458 µM) | – | 0.25 (≈ 0.716 µM) | C[C@@H](c1ncncc1F)[C@](O)(Cn1cncn1)c1ccc(F)cc1F [Voriconazole, reference compound] | –

Row | SMILES | MIC [1] [µg/mL] | MIC [2] [µg/mL] | MIC [5] [µg/mL] | further results
9 | OC(Cn1cnnn1)(c1ccc(F)cc1F)C(F)(F)c1ccc(C#Cc2ccc(Cl)cc2)cn1 (racemic) [Example 2, 1-(5-((4-Chlorophenyl)ethynyl)pyridin-2-yl)-2-(2,4-difluorophenyl)-1,1-difluoro-3-(1H-tetrazol-1-yl)propan-2-ol] | 0.004 (≈ 0.0082 µM) | 0.25 to 1 (≈ 0.512 to 2.05 µM) | 8 (≈ 16.4 µM) | protection from fungal growth in planta [3]: provide protection from fungal growth; protection from fungal growth in planta [4]: provide protection from fungal growth
